Experimental data reported in patent publication US8017775B2, “1-2-dihydroquinoline derivative having glucocorticoid receptor binding activity” (Santen Pharmaceutical Co., Ltd., priority 2005, dated 2011).

Target: T1, Recombinant human GR (Homo sapiens, UniProt P04150)
T1 construct: purchased Invitrogen P2816
T1 sequence (P04150 1-777): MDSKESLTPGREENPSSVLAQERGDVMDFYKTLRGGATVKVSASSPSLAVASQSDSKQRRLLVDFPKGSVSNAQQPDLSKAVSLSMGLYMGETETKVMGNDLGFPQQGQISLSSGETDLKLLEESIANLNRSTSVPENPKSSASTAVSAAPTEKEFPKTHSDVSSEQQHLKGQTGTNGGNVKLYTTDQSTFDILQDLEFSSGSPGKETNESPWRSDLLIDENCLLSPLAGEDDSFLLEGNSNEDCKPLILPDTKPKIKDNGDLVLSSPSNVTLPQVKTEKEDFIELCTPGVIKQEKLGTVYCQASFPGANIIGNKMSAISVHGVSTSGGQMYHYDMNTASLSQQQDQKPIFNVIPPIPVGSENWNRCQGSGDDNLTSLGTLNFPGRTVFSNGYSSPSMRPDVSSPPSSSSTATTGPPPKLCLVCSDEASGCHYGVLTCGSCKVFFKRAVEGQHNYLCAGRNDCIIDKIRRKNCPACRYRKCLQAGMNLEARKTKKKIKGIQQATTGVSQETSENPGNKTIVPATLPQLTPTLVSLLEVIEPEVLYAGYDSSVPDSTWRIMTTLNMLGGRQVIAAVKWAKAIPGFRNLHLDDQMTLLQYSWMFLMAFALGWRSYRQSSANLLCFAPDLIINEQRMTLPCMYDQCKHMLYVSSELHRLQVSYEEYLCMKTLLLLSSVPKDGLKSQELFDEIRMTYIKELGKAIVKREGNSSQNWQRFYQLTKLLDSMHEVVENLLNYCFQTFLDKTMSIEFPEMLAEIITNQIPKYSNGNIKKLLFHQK
Assay: GR competitor assay by fluorescence polarization (GR binding ratio)
Conditions: positive control 2 mM dexamethasone, a GR binding ratio of 100% or more is indicated by 100%

Q: Which “GR Binding ratio (%)” value does the source give for `C=CCOc1ccc(-c2ccc3c(c2COc2cc(F)ccc2C)C(C)=CC(C)(C)N3)c(OC)c1` [Compound 15-7, 6-(4-Allyloxy-2-methoxyphenyl)-5-(5-fluoro-2-methylphenoxymethyl)-2,2,4-trimethyl-1,2-dihydroquinoline] here?
A: ≥ 100%
